# Results as given in ChEMBL document CHEMBL1130039, “1,2-Diarylimidazoles as potent, cyclooxygenase-2 selective, and orally active antiinflammatory agents” (J Med Chem, 1997).
# Active and inactive are the calls of the source. The calls are words filed in the database; no cut-off is given here.
# Experiments:
# [1] = species on record: Rattus norvegicus; test: animal or person; type: functional
# [2] = molecular target: T1, Prostaglandin G/H synthase 1 (Homo sapiens, UniProt P23219)
# [3] = species on record: Rattus norvegicus; test: animal or person; type: functional; remark: listed apart in the source
# [4] = species on record: Rattus norvegicus; test: animal or person; type: functional; remark: listed apart in the source
# [5] = species on record: Rattus norvegicus; test: animal or person; type: functional; remark: listed apart in the source
# [6] = mouse, in vivo, po, 200 mg/kg
# [7] = species on record: Rattus norvegicus; test: animal or person; type: functional; remark: listed apart in the source
# [8] = mouse, in vivo, po, 20 mg/kg
# [9] = rat, in vivo, po, 200 mg/kg
# [10] = species on record: Rattus norvegicus; test: animal or person; type: functional; remark: listed apart in the source
# [11] = species on record: Rattus norvegicus; test: animal or person; type: functional; remark: listed apart in the source
# [12] = molecular target: T2, Prostaglandin G/H synthase 2 (Homo sapiens) (UniProt P35354)
# T2 sequence (whole entry): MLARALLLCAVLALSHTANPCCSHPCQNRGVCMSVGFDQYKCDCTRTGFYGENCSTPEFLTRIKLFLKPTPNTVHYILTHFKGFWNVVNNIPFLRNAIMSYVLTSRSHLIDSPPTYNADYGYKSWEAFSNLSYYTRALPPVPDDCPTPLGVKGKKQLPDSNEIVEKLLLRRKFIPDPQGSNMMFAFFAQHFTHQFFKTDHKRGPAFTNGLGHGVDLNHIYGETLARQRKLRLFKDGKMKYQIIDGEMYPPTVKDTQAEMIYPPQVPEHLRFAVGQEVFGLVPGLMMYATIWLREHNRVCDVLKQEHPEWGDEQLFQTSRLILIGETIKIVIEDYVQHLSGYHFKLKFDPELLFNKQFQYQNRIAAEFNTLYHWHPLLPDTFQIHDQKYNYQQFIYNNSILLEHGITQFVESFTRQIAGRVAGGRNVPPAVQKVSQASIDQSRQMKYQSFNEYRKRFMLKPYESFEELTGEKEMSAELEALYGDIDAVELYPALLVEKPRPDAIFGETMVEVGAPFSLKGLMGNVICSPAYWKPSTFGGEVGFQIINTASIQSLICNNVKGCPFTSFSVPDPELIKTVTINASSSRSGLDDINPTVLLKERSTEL
# [13] = molecular target: T1, Prostaglandin G/H synthase 1; remark: listed apart in the source
# [14] = species on record: Rattus norvegicus; test: animal or person; type: functional; remark: listed apart in the source
# [15] = species on record: Rattus norvegicus; test: animal or person; conditions: read-out: Inhibition
# [16] = physchem; conditions: octanol/water
# T1 sequence (P23219 whole entry): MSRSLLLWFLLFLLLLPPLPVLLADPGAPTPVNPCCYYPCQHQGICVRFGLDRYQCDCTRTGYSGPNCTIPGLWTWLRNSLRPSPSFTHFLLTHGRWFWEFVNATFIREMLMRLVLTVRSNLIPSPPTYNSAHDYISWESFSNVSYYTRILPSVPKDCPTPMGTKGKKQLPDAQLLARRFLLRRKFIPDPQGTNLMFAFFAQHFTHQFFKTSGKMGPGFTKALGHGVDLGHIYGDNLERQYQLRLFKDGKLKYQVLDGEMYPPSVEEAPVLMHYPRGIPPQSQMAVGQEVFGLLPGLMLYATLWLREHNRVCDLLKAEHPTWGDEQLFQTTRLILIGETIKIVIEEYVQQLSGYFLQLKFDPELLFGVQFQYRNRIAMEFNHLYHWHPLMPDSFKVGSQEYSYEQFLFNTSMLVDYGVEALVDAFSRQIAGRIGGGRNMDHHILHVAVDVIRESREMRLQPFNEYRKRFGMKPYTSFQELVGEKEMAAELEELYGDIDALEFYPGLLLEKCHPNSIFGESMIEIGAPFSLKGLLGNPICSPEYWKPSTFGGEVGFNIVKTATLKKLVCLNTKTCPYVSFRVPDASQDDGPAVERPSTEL
smiles,measurement,setting,value
CSCc1cn(-c2ccc(S(C)(=O)=O)cc2)c(-c2ccc(Cl)cc2)n1,inhibition in vivo at 2 mg/kg,[1],10%
same,IC50,[2],> 100 µM
COc1ccc(-c2nc(C(F)(F)F)cn2-c2ccc(S(C)(=O)=O)cc2)cc1Cl,inhibition in vivo at 2 mg/kg,[1],92%
same,ED50,[3],29 mg/kg
same,ED50,[4],35 mg/kg
NS(=O)(=O)c1ccc(-n2cc(C(F)(F)F)nc2-c2ccc(F)c(F)c2)cc1,inhibition in vivo at 2 mg/kg,[1],83%
Cc1cn(-c2ccc(F)cc2)c(-c2ccc(S(C)(=O)=O)cc2)n1,IC50,[2],> 100 µM
COc1cc(-c2nc(C(F)(F)F)cn2-c2ccc(S(C)(=O)=O)cc2)ccc1Cl,inhibition in vivo at 2 mg/kg,[1],0%
Cc1cc(F)cc(-c2nc(C(F)(F)F)cn2-c2ccc(S(C)(=O)=O)cc2)c1,inhibition in vivo at 2 mg/kg,[1],87%
Cc1ccc(-c2nc(C(F)(F)F)cn2-c2ccc(S(C)(=O)=O)cc2)cc1C,inhibition in vivo at 2 mg/kg,[1],15%
CS(=O)(=O)c1ccc(-n2cc(C(F)(F)F)nc2-c2cccc(Br)c2)cc1,inhibition in vivo at 2 mg/kg,[1],84%
Cc1cccc(-c2nc(C(F)(F)F)cn2-c2ccc(S(C)(=O)=O)cc2)c1,ED50,[5],23 mg/kg
same,inhibition in vivo at 2 mg/kg,[1],77%
same,Toxicity,[6],0
same,ED50,[7],46 mg/kg
same,Toxicity,[8],0
CS(=O)(=O)c1ccc(-n2cc(C(F)(F)F)nc2-c2cc(Cl)cc(Cl)c2)cc1,inhibition in vivo at 2 mg/kg,[1],5%
CS(=O)(=O)c1ccc(-n2cc(CSc3ccc(Cl)cc3)nc2-c2ccc(Cl)cc2)cc1,inhibition in vivo at 2 mg/kg,[1],0%
same,IC50,[2],> 100 µM
Cc1ccccc1-c1nc(C(F)(F)F)cn1-c1ccc(S(C)(=O)=O)cc1,ED50,[5],17.8 mg/kg
same,inhibition in vivo at 2 mg/kg,[1],95%
same,ED50,[7],43 mg/kg
same,Toxicity,[9],0
Cc1ccc(-c2nc(C(F)(F)F)cn2-c2ccc(S(C)(=O)=O)cc2)cc1Cl,inhibition in vivo at 2 mg/kg,[1],10%
same,ED50,[7],55 mg/kg
same,ED50,[10],20.9 mg/kg
Cc1cc(-c2nc(C(F)(F)F)cn2-c2ccc(S(C)(=O)=O)cc2)ccc1F,inhibition in vivo at 2 mg/kg,[1],90%
COc1c(F)cc(-c2nc(C(F)(F)F)cn2-c2ccc(S(C)(=O)=O)cc2)cc1F,inhibition in vivo at 2 mg/kg,[1],89%
same,ED50,[11],26 mg/kg
CS(=O)(=O)c1ccc(-n2cc(C#N)nc2-c2ccc(Cl)cc2)cc1,inhibition in vivo at 2 mg/kg,[1],69%
CS(=O)(=O)c1ccc(-n2cc(C(F)(F)F)nc2-c2cccc(F)c2)cc1,inhibition in vivo at 2 mg/kg,[1],88%
CSc1ccc(-c2nc(C(F)(F)F)cn2-c2ccc(S(C)(=O)=O)cc2)cc1,inhibition in vivo at 2 mg/kg,[1],79%
Cc1ccc(-c2nc(C(F)(F)F)cn2-c2ccc(S(N)(=O)=O)cc2)cc1,inhibition in vivo at 2 mg/kg,[1],63%
COc1c(F)cc(-c2nc(C(F)(F)F)cn2-c2ccc(S(N)(=O)=O)cc2)cc1F,inhibition in vivo at 2 mg/kg,[1],100%
CSc1ccc(-c2nc(C(F)(F)F)cn2-c2ccc(S(C)(=O)=O)cc2)cc1Cl,inhibition in vivo at 2 mg/kg,[1],0%
CS(=O)(=O)c1ccc(-n2cc(CF)nc2-c2ccc(Cl)cc2)cc1,inhibition in vivo at 2 mg/kg,[1],36%
same,IC50,[2],> 100 µM
CS(=O)(=O)Cc1cn(-c2ccc(S(C)(=O)=O)cc2)c(-c2ccc(Cl)cc2)n1,IC50,[2],> 100 µM
NS(=O)(=O)c1ccc(-n2cc(C(F)(F)F)nc2-c2cccc(Br)c2)cc1,IC50,[2],4.5 µM
Cc1ccc(F)cc1-c1nc(C(F)(F)F)cn1-c1ccc(S(C)(=O)=O)cc1,IC50,[2],> 100 µM
Cc1cc(-c2nc(C(F)(F)F)cn2-c2ccc(S(C)(=O)=O)cc2)ccc1Cl,inhibition in vivo at 2 mg/kg,[1],64%
CS(=O)(=O)c1ccc(-n2cc(COc3ccc(Cl)cc3)nc2-c2ccc(Cl)cc2)cc1,inhibition in vivo at 2 mg/kg,[1],15%
same,IC50,[2],> 100 µM
CS(=O)(=O)c1ccc(-n2cc(-c3ccccc3)nc2-c2ccc(Cl)cc2)cc1,inhibition in vivo at 2 mg/kg,[1],6%
same,IC50,[2],> 100 µM
CN(C)c1ccc(-c2nc(C(F)(F)F)cn2-c2ccc(S(C)(=O)=O)cc2)cc1Cl,inhibition in vivo at 2 mg/kg,[1],87%
Cc1cccc(-c2nc(C(F)(F)F)cn2-c2ccc(S(N)(=O)=O)cc2)c1,inhibition in vivo at 2 mg/kg,[1],95%
CS(=O)(=O)c1ccc(-n2cc(C(F)(F)F)nc2-c2ccccc2F)cc1,inhibition in vivo at 2 mg/kg,[1],97%
Cc1cccc(Cl)c1-c1nc(C(F)(F)F)cn1-c1ccc(S(C)(=O)=O)cc1,IC50,[2],> 100 µM
CS(=O)(=O)c1ccc(-n2cc(C(F)(F)F)nc2-c2ccccc2)cc1,ED50,[5],20.8 mg/kg
same,inhibition in vivo at 2 mg/kg,[1],98%
same,ED50,[7],56 mg/kg
NS(=O)(=O)c1ccc(-n2cc(C(F)(F)F)nc2-c2ccc(F)cc2)cc1,inhibition in vivo at 2 mg/kg,[1],98%
same,IC50,[2],1.9 µM
CS(=O)(=O)c1ccc(-c2[nH]cnc2-c2ccc(F)cc2)cc1,NA,[12],inactive
same,NA,[13],inactive
COc1c(Cl)cc(-c2nc(C(F)(F)F)cn2-c2ccc(S(C)(=O)=O)cc2)cc1Cl,inhibition in vivo at 2 mg/kg,[1],25%
same,IC50,[2],> 100 µM
COc1ccc(-c2nc(C(F)(F)F)cn2-c2ccc(S(N)(=O)=O)cc2)cc1F,inhibition in vivo at 2 mg/kg,[1],89%
same,ED50,[7],36 mg/kg
same,ED50,[14],19 mg/kg
COc1ccc2c(c1)c(CC(=O)O)c(C)n2C(=O)c1ccc(Cl)cc1 [INDOMETHACIN],ED50,[14],60 mg/kg
Cc1ccc(-c2nc(C(F)(F)F)cn2-c2ccc(S(C)(=O)=O)cc2)cc1F,inhibition in vivo at 2 mg/kg,[1],47%
COc1cc(-c2nc(C(F)(F)F)cn2-c2ccc(S(N)(=O)=O)cc2)ccc1Cl,inhibition in vivo at 2 mg/kg,[1],100%
CS(=O)(=O)c1ccc(-n2cc(C(F)(F)F)nc2-c2ccc(F)c(F)c2)cc1,inhibition in vivo at 2 mg/kg,[1],87%
COc1cccc(-c2nc(C(F)(F)F)cn2-c2ccc(S(C)(=O)=O)cc2)c1,inhibition in vivo at 2 mg/kg,[1],45%
CN(C)c1cc(-c2nc(C(F)(F)F)cn2-c2ccc(S(C)(=O)=O)cc2)ccc1Cl,inhibition in vivo at 2 mg/kg,[1],69%
same,IC50,[2],> 100 µM
Cc1cc(Cl)cc(-c2nc(C(F)(F)F)cn2-c2ccc(S(N)(=O)=O)cc2)c1,inhibition in vivo at 2 mg/kg,[1],61%
same,IC50,[2],> 100 µM
CS(=O)(=O)c1ccc(-n2cc(C(F)(F)F)nc2-c2cccc(C(F)(F)F)c2)cc1,inhibition in vivo at 2 mg/kg,[1],42%
COCc1cccc(-c2nc(C(F)(F)F)cn2-c2ccc(S(C)(=O)=O)cc2)c1,IC50,[2],> 100 µM
CS(=O)(=O)c1ccc(-n2cc(CN)nc2-c2ccc(Cl)cc2)cc1,IC50,[2],> 100 µM
Cc1cc(F)cc(-c2nc(C(F)(F)F)cn2-c2ccc(S(N)(=O)=O)cc2)c1,inhibition in vivo at 2 mg/kg,[1],80%
Cc1cn(-c2ccc(S(C)(=O)=O)cc2)c(-c2ccc(Cl)cc2)n1,inhibition in vivo at 2 mg/kg,[15],53%
same,IC50,[2],> 100 µM
CN(C)c1c(Cl)cc(-c2nc(C(F)(F)F)cn2-c2ccc(S(C)(=O)=O)cc2)cc1Cl,inhibition in vivo at 2 mg/kg,[1],25%
same,IC50,[2],> 100 µM
COc1c(Br)cc(-c2nc(C(F)(F)F)cn2-c2ccc(S(C)(=O)=O)cc2)cc1Br,inhibition in vivo at 2 mg/kg,[1],0%
same,IC50,[2],> 100 µM
CS(=O)(=O)c1ccc(-n2cc(C(F)(F)F)nc2-c2cc(F)cc(C(F)(F)F)c2)cc1,IC50,[2],67 µM
CS(=O)(=O)c1ccc(-n2ccnc2-c2ccccc2)cc1,IC50,[2],> 100 µM
CS(=O)(=O)c1ccc(-n2cc(C(F)(F)F)nc2-c2ccc3c(c2)OCO3)cc1,inhibition in vivo at 2 mg/kg,[1],78%
COc1c(C)cc(-c2nc(C(F)(F)F)cn2-c2ccc(S(C)(=O)=O)cc2)cc1C,inhibition in vivo at 2 mg/kg,[1],29%
same,IC50,[2],91 µM
CS(=O)(=O)c1ccc(-n2cc(C(F)(F)F)nc2-c2ccc(Cl)cc2)cc1,ED50,[5],9 mg/kg
same,inhibition in vivo at 2 mg/kg,[1],98%
same,logP,[16],3.3
